The results in this text go back to patent US20260285831A1, “LACTAM DERIVATIVES FOR INHIBITING NLRP3 AND USES THEREOF” (Ventus Therapeutics U.S., Inc., priority 2023, published 2026).

Structures are written as SMILES. Where only a bound is given, the exact number is not on record here.

T1 sequence (Q96P20 whole entry): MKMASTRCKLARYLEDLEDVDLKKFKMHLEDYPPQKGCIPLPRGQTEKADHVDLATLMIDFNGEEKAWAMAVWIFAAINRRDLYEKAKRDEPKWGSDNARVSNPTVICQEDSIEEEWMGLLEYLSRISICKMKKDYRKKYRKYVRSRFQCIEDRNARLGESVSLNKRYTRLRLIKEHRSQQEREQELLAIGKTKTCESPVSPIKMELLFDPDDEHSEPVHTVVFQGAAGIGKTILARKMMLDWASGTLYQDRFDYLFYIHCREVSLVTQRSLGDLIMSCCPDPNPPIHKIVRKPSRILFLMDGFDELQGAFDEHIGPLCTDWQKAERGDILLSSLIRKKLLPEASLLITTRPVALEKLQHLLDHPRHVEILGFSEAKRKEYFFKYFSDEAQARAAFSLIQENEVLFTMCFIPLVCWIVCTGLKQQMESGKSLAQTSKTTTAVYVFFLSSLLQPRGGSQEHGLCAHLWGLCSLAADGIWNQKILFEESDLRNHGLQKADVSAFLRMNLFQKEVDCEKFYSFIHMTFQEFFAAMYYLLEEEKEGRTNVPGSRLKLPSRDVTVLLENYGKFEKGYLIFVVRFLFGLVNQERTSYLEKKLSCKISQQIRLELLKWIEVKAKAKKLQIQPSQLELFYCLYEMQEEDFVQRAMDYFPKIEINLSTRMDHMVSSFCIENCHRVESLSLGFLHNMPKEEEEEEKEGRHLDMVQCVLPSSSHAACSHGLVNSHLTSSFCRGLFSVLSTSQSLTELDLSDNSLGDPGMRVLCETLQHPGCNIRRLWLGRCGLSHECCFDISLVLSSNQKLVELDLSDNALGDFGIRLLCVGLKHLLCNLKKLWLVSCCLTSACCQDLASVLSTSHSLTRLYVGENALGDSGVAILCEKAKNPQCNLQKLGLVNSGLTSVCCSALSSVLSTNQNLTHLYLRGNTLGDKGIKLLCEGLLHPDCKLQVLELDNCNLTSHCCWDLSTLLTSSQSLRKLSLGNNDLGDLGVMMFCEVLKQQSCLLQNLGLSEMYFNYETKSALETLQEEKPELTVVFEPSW

The first assay concerns the target T1, human NLRP3 (Homo sapiens, UniProt Q96P20).
T1 construct: Human whole blood is drawn from healthy volunteers after obtaining written informed consent; from tissue; host or cells: human whole blood from healthy volunteers (heparin lithium tubes)
The assay can be described thus: Human whole blood (hWB) NLRP3 assay (IL-1β release after LPS priming and ATP activation). Format: cell-based. The settings on record: human whole blood, LPS 1 μg/ml priming, ATP activation; Table C, class symbols; read-out: hWB IL-1β IC50. How it is done:
Human Whole Blood (hWB) NLRP3 Assay
Human whole blood is drawn from healthy volunteers after obtaining written informed consent. Heparin lithium coated tubes are used to collect blood from volunteers. Blood samples are distributed on 96 well plates using 90 μl per well.
Priming procedure: Priming is performed by adding 5 μl of LPS (026:B6; Sigma L-2654) at a final concentration of 1 μg/ml for 4.5 hours in a humidified incubator with 37° C., 5% CO2. Thirty minutes prior to NLRP3 activation, 5 μl of a 20× compound solution or vehicle (2% dimethylsulfoxide (DMSO)) is added to each well and plates were incubated on a shaker (450 rpm) in a humidified incubator with 37° C., 5% CO2.
Alternative priming procedure: Thirty minutes prior to LPS priming, 5 μl of a 20× compound solution or vehicle (2% dimethylsulfoxide (DMSO)) is added to each well and plates were incubated on a shaker (450 rpm) in a humidified incubator with 37° C., 5% CO2. Priming is performed by adding 5 μl of LPS (026:B6; Sigma L-2654) at a final concentration of 1 μg/ml for 5 hours in a humidified incubator with 37° C., 5% CO2.
Activation is then performed by adding 3.3 μl of a 31×ATP solution per well. At the end of the 30 minutes stimulation, the plates are centrifuged (800 g, 10 min, room temperature) and the plasma from each well is frozen at −80° C. […] levels in the supernatant were analyzed using a mesoscale discovery assay (MSD K151TUK) according to the manufacturers' instructions.
There is no detectable difference in assay IC50 results using the priming procedure versus the alternative priming procedure.
Data provided in Table C, below. hWB […] Assay: A represents an IC50 value <0.3 μM; B represents an IC50 value ≥0.3 μM and <0.5 μM; C represents an IC50 value ≥0.5 μM and <1.0 μM; D represents an IC50 value ≥1.0 μM and <10 μM; E represents an IC50 value ≥10 μM. Dashed (--) lines indicate no data available.
A word on the IC50: it is the midpoint of a concentration-inhibition curve. As to `CC1(C)C(=O)N([C@@H]2CCN(CCCC(=O)O)C2=O)c2c(F)cc(Cl)c(F)c21` (stereo in doubt) [Compound 23A, (R)-4-(3-(5-chloro-4,7-difluoro-3,3-dimethyl-2-oxoindolin-1-yl)-2-oxopyrrolidin-1-yl)butanoic acid], the IC50 fell in the range of 1 to 10 µM. With `CC1(C)C(=O)N([C@@H]2CCN(CCCC(=O)O)C2=O)c2c(F)cc(C3CC3)cc21` (stereo in doubt) [Compound 22A*, (R)-4-(3-(5-cyclopropyl-7-fluoro-3,3-dimethyl-2-oxoindolin-1-yl)-2-oxopyrrolidin-1-yl)butanoic acid], the IC50 is less than 0.3 µM.

Take `CC1(C)C(=O)N([C@H]2CCN(CCCC(=O)O)C2=O)c2c(F)cc(C3CC3)c(F)c21` [Compound 16B, (S)-4-(3-(5-cyclopropyl-4,7-difluoro-3,3-dimethyl-2-oxoindolin-1-yl)-2-oxopyrrolidin-1-yl)butanoic acid]: the concentration for half-maximal inhibition (IC50) fell in the range of 1 to 10 µM.

Regarding `CC1(C)C(=O)N(c2cccn(CCCC(=O)O)c2=O)c2c(F)cc(Br)cc21` [Compound 1, 4-(3-(5-bromo-7-fluoro-3,3-dimethyl-2-oxoindolin-1-yl)-2-oxopyridin-1(2H)-yl)butanoic acid], the IC50 was 1 to 10 µM. Consider `C[C@@H](CCC(=O)O)N1CC[C@H](N2C(=O)C(C)(C)c3c(F)c(C4CC4)cc(F)c32)C1=O` (single isomer, unassigned) [Compound 24C*], for which the half-inhibitory concentration (IC50) was no less than 10 µM.

Consider `Cc1ccn(CCCC(=O)O)c(=O)c1N1C(=O)C(C)(C)c2c(F)c(C3CC3)cc(F)c21` (single isomer, unassigned) [Compound 4A*, (Sa)-4-(3-(5-cyclopropyl-4,7-difluoro-3,3-dimethyl-2-oxoindolin-1-yl)-4-methyl-2-oxopyridin-1(2H)-yl)butanoic acid], for which the IC50 was no less than 10 µM.

The assay is the same for the next values; noted with them: isomer comparison, in words.
As for `CC1(C)C(=O)N([C@@H]2CCN(CCCC(=O)O)C2=O)c2c(F)cc(C3CC3)cc21` (stereo in doubt) [Compound 22A*, (R)-4-(3-(5-cyclopropyl-7-fluoro-3,3-dimethyl-2-oxoindolin-1-yl)-2-oxopyrrolidin-1-yl)butanoic acid], the “hWB NLRP3 inhibitory activity compared to the (S)-isomer” value is reported as “more active isomer”.
